Source: ChEMBL document CHEMBL3813664, “Synthesis and evaluation of biphenyl derivatives as potential downregulators of VEGF protein secretion and telomerase-related gene expressions” (Bioorg Med Chem, 2016)
Converted amounts (≈) assume the structure as drawn. The source made the active and inactive calls. The rule behind the calls is not given here.

Columns and labels:
[1] = tested on: HT-29; assay: Downregulation of c-Myc gene expression in human HT-29 cells assessed as gene expression levels at 10 ug/ml after 48 hrs by RT-qPCR analysis relative to control; format: functional
[2] = tested on: HT-29; assay: Downregulation of VEGFA-165 secretion in human HT-29 cells assessed as protein secretion levels at 10 ug/ml after 72 hrs by ELISA relative to control; format: functional
[3] = tested on: HT-29; assay: Downregulation of TERT gene expression in human HT-29 cells assessed as gene expression levels at 10 ug/ml after 48 hrs by RT-qPCR analysis relative to control; format: functional
[4] = tested on: HT-29; assay: Cytotoxicity against human HT-29 cells assessed as reduction in cell growth after 3 days by MTT assay; format: functional, cell-based; conditions: HT-29, 72 h
[5] = Therapeutic index, ratio of IC50 for HEK293 cells to IC50 for human HT-29 cells; format: cell-based; conditions: HEK293 cells versus HT-29 cells, read-out: Ratio IC50
[6] = tested on: HEK293; assay: Cytotoxicity against HEK293 cells assessed as reduction in cell growth after 3 days by MTT assay; format: cell-based; conditions: Homo sapiens, HEK293, 72 h
[7] = tested on: MCF7; assay: Cytotoxicity against human MCF7 cells assessed as reduction in cell growth after 3 days by MTT assay; format: functional, cell-based; conditions: MCF7, 72 h
[8] = Therapeutic index, ratio of IC50 for HEK293 cells to IC50 for human MCF7 cells; format: cell-based; conditions: HEK293 cells versus MCF7 cells, read-out: Ratio IC50
[9] = tested on: HT-29; assay: Downregulation of VEGFA gene expression in human HT-29 cells assessed as gene expression levels at 10 ug/ml after 48 hrs by RT-qPCR analysis relative to control; format: functional
[10] = tested on: HT-29; assay: Downregulation of VEGFA gene expression in human HT-29 cells assessed as gene expression levels at 15 ug/ml after 48 hrs by RT-qPCR analysis relative to control; format: functional
[11] = tested on: HT-29; assay: Downregulation of VEGFA-165 secretion in human HT-29 cells assessed as protein secretion levels at 15 ug/ml after 72 hrs by ELISA relative to control; format: functional
[12] = tested on: HT-29; assay: Downregulation of c-Myc gene expression in human HT-29 cells assessed as gene expression levels at 15 ug/ml after 48 hrs by RT-qPCR analysis relative to control; format: functional
[13] = tested on: HT-29; assay: Downregulation of TERT gene expression in human HT-29 cells assessed as gene expression levels at 15 ug/ml after 48 hrs by RT-qPCR analysis relative to control; format: functional
[14] = tested on: HT-29; assay: Downregulation of c-Myc gene expression in human HT-29 cells assessed as gene expression levels at 5 ug/ml after 48 hrs by RT-qPCR analysis relative to control; format: functional
[15] = tested on: HT-29; assay: Downregulation of VEGFA-165 secretion in human HT-29 cells assessed as protein secretion levels at 5 ug/ml after 72 hrs by ELISA relative to control; format: functional
[16] = tested on: HT-29; assay: Downregulation of TERT gene expression in human HT-29 cells assessed as gene expression levels at 5 ug/ml after 48 hrs by RT-qPCR analysis relative to control; format: functional
[17] = tested on: HT-29; assay: Downregulation of VEGFA gene expression in human HT-29 cells assessed as gene expression levels at 5 ug/ml after 48 hrs by RT-qPCR analysis relative to control; format: functional
[18] = tested on: HT-29; assay: Downregulation of VEGFA gene expression in human HT-29 cells assessed as gene expression levels at 20 ug/ml after 48 hrs by RT-qPCR analysis relative to control; format: functional
[19] = tested on: HT-29; assay: Downregulation of c-Myc gene expression in human HT-29 cells assessed as gene expression levels at 20 ug/ml after 48 hrs by RT-qPCR analysis relative to control; format: functional
[20] = tested on: HT-29; assay: Downregulation of TERT gene expression in human HT-29 cells assessed as gene expression levels at 20 ug/ml after 48 hrs by RT-qPCR analysis relative to control; format: functional
[21] = tested on: HT-29; assay: Downregulation of VEGFA-165 secretion in human HT-29 cells assessed as protein secretion levels at 20 ug/ml after 72 hrs by ELISA relative to control; format: functional
[22] = tested on: HT-29; assay: Downregulation of VEGFA-165 secretion in human HT-29 cells assessed as protein secretion levels at <1.1 ug/ml after 72 hrs by ELISA relative to control; format: functional, cell-based
[23] = tested on: HT-29; assay: Downregulation of TERT gene expression in human HT-29 cells assessed as gene expression levels at 3 ug/ml after 48 hrs by RT-qPCR analysis relative to control; format: functional
[24] = tested on: HT-29; assay: Downregulation of VEGFA-165 secretion in human HT-29 cells assessed as protein secretion levels at 3 ug/ml after 72 hrs by ELISA relative to control; format: functional
[25] = tested on: HT-29; assay: Downregulation of c-Myc gene expression in human HT-29 cells assessed as gene expression levels at 3 ug/ml after 48 hrs by RT-qPCR analysis relative to control; format: functional
[26] = tested on: HT-29; assay: Downregulation of VEGFA gene expression in human HT-29 cells assessed as gene expression levels at 3 ug/ml after 48 hrs by RT-qPCR analysis relative to control; format: functional
[27] = tested on: HT-29; assay: Downregulation of VEGFA gene expression in human HT-29 cells assessed as gene expression levels at 30 ug/ml after 48 hrs by RT-qPCR analysis relative to control; format: functional
[28] = tested on: HT-29; assay: Downregulation of c-Myc gene expression in human HT-29 cells assessed as gene expression levels at 30 ug/ml after 48 hrs by RT-qPCR analysis relative to control; format: functional
[29] = tested on: HT-29; assay: Downregulation of TERT gene expression in human HT-29 cells assessed as gene expression levels at 30 ug/ml after 48 hrs by RT-qPCR analysis relative to control; format: functional
[30] = tested on: HT-29; assay: Downregulation of VEGFA-165 secretion in human HT-29 cells assessed as protein secretion levels at 30 ug/ml after 72 hrs by ELISA relative to control; format: functional

Structure (SMILES)	IC50 [4] [µg/mL]	selectivity ratio [5]	IC50 [6] [µg/mL]	IC50 [7] [µg/mL]	selectivity ratio [8]	Activity [10] [%]	Activity [11] [%]	Activity [12] [%]	Activity [13] [%]	other results
COc1cccc(-c2cccc(O)c2)c1	16 (≈ 79.9 µM)	2	34 (≈ 170 µM)	33 (≈ 165 µM)	1	–	–	–	–	Activity [1]: 71%; Activity [2]: 31%; Activity [3]: 88%; Activity [9]: 21%
COc1ccc(-c2ccc(O)cc2)c(OC)c1	21 (≈ 91.2 µM)	> 5	> 100	47 (≈ 204 µM)	> 2	37	35	87	56	–
COc1cccc(-c2ccc(O)cc2)c1	24 (≈ 120 µM)	1.5	35 (≈ 175 µM)	41 (≈ 205 µM)	0.9	51	48	34	35	–
COc1ccccc1-c1cccc(O)c1	22 (≈ 110 µM)	2.3	50 (≈ 250 µM)	44 (≈ 220 µM)	1.1	76	31	50	62	–
C=CCc1ccc(O)c(-c2ccc(O)c(CC=C)c2)c1 [HONOKIOL]	–	1.5	9.3 (≈ 34.9 µM)	5 (≈ 18.8 µM)	1.9	–	–	–	–	Activity [14]: 45%; Activity [15]: 55%; Activity [16]: 45%; Activity [17]: 36%
COc1ccc(-c2ccccc2N)cc1OC	15 (≈ 65.4 µM)	3.3	49.9 (≈ 218 µM)	18 (≈ 78.5 µM)	3	61	56	50	86	–
COc1ccc(-c2ccc(O)cc2)cc1OC	26 (≈ 113 µM)	> 4	> 100	34 (≈ 148 µM)	> 3	–	–	–	–	Activity [18]: 41%; Activity [19]: 87%; Activity [20]: 22%; Activity [21]: 55%
Oc1ccc(-c2ccccc2)cc1	25 (≈ 147 µM)	2	45 (≈ 264 µM)	47 (≈ 276 µM)	1	–	–	–	–	Activity [18]: 65%; Activity [19]: 55%; Activity [20]: 81%; Activity [21]: 48%
Nc1ccccc1-c1ccccc1	16 (≈ 94.5 µM)	3.3	54.9 (≈ 324 µM)	2.9 (≈ 17.1 µM)	19	65	91	53	56	–
COc1cccc(-c2ccccc2)c1	1.1 (≈ 5.97 µM)	5.1	5.5 (≈ 29.9 µM)	47 (≈ 255 µM)	0.1	–	–	–	–	Activity [14]: 81%; Activity [15]: 57%; Activity [16]: 77%; Activity [22]: inactive; Activity [17]: 73%
Oc1cccc(-c2cccc(O)c2)c1	2.5 (≈ 13.4 µM)	28	68 (≈ 365 µM)	51.6 (≈ 277 µM)	1.3	–	–	–	–	Activity [23]: 29%; Activity [24]: 50%; Activity [25]: 16%; Activity [26]: 5%
COc1ccc(-c2cccc(N)c2)cc1OC	4 (≈ 17.4 µM)	5	20 (≈ 87.2 µM)	> 100	< 0.2	–	–	–	–	Activity [23]: 90%; Activity [24]: 42%; Activity [25]: 40%; Activity [26]: 57%
Oc1ccccc1-c1ccccc1O	2.5 (≈ 13.4 µM)	23	57 (≈ 306 µM)	60 (≈ 322 µM)	1	–	–	–	–	Activity [23]: 3%; Activity [24]: 57%; Activity [25]: 18%; Activity [26]: 23%
COc1ccc(-c2ccccc2O)c(OC)c1	33.7 (≈ 146 µM)	> 3	> 100	> 100	–	–	–	–	–	Activity [27]: 56%; Activity [28]: 54%; Activity [29]: 29%; Activity [30]: 29%
